Source: patent US20040248918A1, “N-phenyl-2-pyrimidine-amine derivatives and process for the preparation thereof” (IL YANG PHARM. CO., LTD., priority 2003, published 2004)

What was measured:
[1] = test system: K562 cancer cell (CML cell line); test: Growth inhibition of K562 cancer cell (MTT); assay type: cell-based; conditions: for IC50: Homo sapiens, K562, 48 h, K562, 2 days, MTT, read-out: IC50
Method: In the present experiment, the inhibitory activity of the compound of formula (1) was determined against the growth of K562 cancer cell. First, the cells were allowed to stand in RPMI (Roswell Park Memorial Institute)-1640 medium containing 10% (v/v) fetal bovine serum in an incubator of 37° C. and 5% by volume of CO2. The cancer cells (1000 cells) were transferred to a 96-well plate, and the test compound was diluted. The plate was allowed to stand under the above mentioned conditions for 2 days. […] The supernatant was removed to leave the resulting crystal.

| SMILES | IC50 [1] [µg/mL] | melting point [°C] | Improved activity versus Imatinib mesylate ([1]; K562) |
| --- | --- | --- | --- |
| CN1CCCN(Cc2ccc(C(=O)Nc3cc(Nc4nccc(-c5cccnc5)n4)ccc3F)cc2)CC1.CS(=O)(=O)O [Example 24, 4-(4-methylhomopiperazin-1-ylmethyl)-N-[2-fluoro-5-(4-(pyridin-3-yl)pyrimidin-2-yl)aminophenyl]benzamide methanesulfonate] | 19.1 | 125 to 127 | – |
| CN1CCN(NCc2ccc(C(=O)Nc3ccc(Nc4nccc(-c5cccnc5)n4)cc3)cc2)CC1.Cl [Example 43, 4-(4-methylpiperazin-1-ylaminomethyl)-N-[4-(4-(pyridin-3-yl)pyrimidin-2-yl)aminophenyl]benzamide hydrochloride] | > 50 | 183 to 185 | – |
| CN1CCN(NCc2ccc(C(=O)Nc3ccc(Nc4nccc(-c5cccnc5)n4)cc3)cc2)CC1.CS(=O)(=O)O [Example 30, 4-(4-methylpiperazin-1-ylaminomethyl)-N-[4-(4-(pyridin-3-yl)pyrimidin-2-yl)aminophenyl]benzamide methanesulfonate] | 22.8 | 151 to 153 | – |
| CN1CCN(NCc2ccc(C(=O)Nc3cc(Nc4nccc(-c5cccnc5)n4)ccc3F)cc2)CC1.CS(=O)(=O)O [Example 28, 4-(4-methylpiperazin-1-ylaminomethyl)-N-[2-fluoro-5-(4-(pyridin-3-yl)pyrimidin-2-yl)aminophenyl]benzamide methanesulfonate] | 8.63 | 142 to 144 | – |
| CN1CCCN(Cc2ccc(C(=O)Nc3ccc(Nc4nccc(-c5cccnc5)n4)cc3)cc2)CC1.Cl [Example 41, 4-(4-methylhomopiperazin-1-ylmethyl)-N-[4-(4-(pyridin-3-yl)pyrimidin-2-yl)aminophenyl]benzamide hydrochloride] | 5.61 | – | – |
| CS(=O)(=O)O.Cc1cc(NC(=O)c2ccc(CN3CCCN(C)CC3)cc2)ccc1Nc1nccc(-c2cccnc2)n1 [Example 16, 4-(4-methylhomopiperazin-1-ylmethyl)-N-[3-methyl-4-(4-(pyridin-3-yl)pyrimidin-2-yl)aminophenyl]benzamide methanesulfonate] | > 50 | 166 to 168 | – |
| Cc1ccc(NC(=O)c2ccc(CNN3CCN(C)CC3)cc2)cc1Nc1nccc(-c2cccnc2)n1.Cl [Example 42, 4-(4-methylpiperazin-1-ylaminomethyl)-N-[4-methyl-3-(4-(pyridin-3-yl)pyrimidin-2-yl)aminophenyl]benzamide hydrochloride] | 0.3 | – | much higher activity |
| CN1CCN(Cc2ccc(C(=O)Nc3ccc(F)c(Nc4nccc(-c5cccnc5)n4)c3)cc2)CC1.CS(=O)(=O)O [Example 32, 4-(4-methylpiperazin-1-ylmethyl)-N-[4-fluoro-3-(4-(pyridin-3-yl)pyrimidin-2-yl)aminophenyl]benzamide methanesulfonate] | 8.06 | 172 to 174 | – |
| CS(=O)(=O)O.Cc1cc(NC(=O)c2ccc(CNN3CCN(C)CC3)cc2)ccc1Nc1nccc(-c2cccnc2)n1 | – | 172 to 174 | – |
| CC(=O)O.CN1CCN(NCc2ccc(C(=O)Nc3ccc(Nc4nccc(-c5cccnc5)n4)cc3)cc2)CC1 | – | 169 to 171 | – |
| CN1CCCN(Cc2ccc(C(=O)Nc3ccc(F)c(Nc4nccc(-c5cccnc5)n4)c3)cc2)CC1.CS(=O)(=O)O [Example 34, 4-(4-methylhomopiperazin-1-ylmethyl)-N-[4-fluoro-3-(4-(pyridin-3-yl)pyrimidin-2-yl)aminophenyl]benzamide methanesulfonate] | 7.17 | 158 to 160 | – |
| CN1CCN(NCc2ccc(C(=O)Nc3cccc(Nc4nccc(-c5cccnc5)n4)c3)cc2)CC1.CS(=O)(=O)O [Example 14, 4-(4-methylpiperazin-1-ylaminomethyl)-N-[3-(4-(pyridin-3-yl)pyrimidin-2-yl)aminophenyl]benzamide methanesulfonate] | 8.95 | 148 to 150 | – |
